PMC3433420 (PLoS ONE, 2012)
Residues, ends and D or L forms follow the SMILES beside them.

Key:
PIK3R3-N SH2 domain = target: T1, PIK3R3-N SH2 domain (Homo sapiens, UniProt Q92569); assay: FP saturation binding assay; conditions: high-confidence ErbB interactions
T1 construct: 6X His; thioredoxin; made in house; host or cells: E. coli BL21(DE3)pLysS
Description: (§1) (See Figure 1A) Rhodamine-labeled peptides were dissolved in assay buffer (20 mM HEPES, 100 mM KCl, 0.1% Tween-20, 5 mM DTT, pH 7.8), diluted to a concentration of 20 nM, and plated into black 384-well plates (Corning, Corning, NY) at 5 µL/well using a Perkin Elmer EP3 pipetting workstation (V&P Scientific, Inc., San Diego, CA). SH2, PTB, and thioredoxin control proteins were plated into the first column of 2 mL 96-well plates (Corning) at a concentration of 20 µM and serially diluted 1∶2 into freezing buffer (300 mM NaCl, 50 mM Na2PO4, pH 8, 20% glycerol v/v) eleven times using a Tecan Freedom EVO 100 workstation (Tecan, Männedorf, Switzerland). For the interaction assay, 5 µL of each of the twelve protein concentrations was added to the peptide-containing 384-well plates via the EP3 resulting in a protein dilution range of 0.002–10 µM and a final volume of 10 µL; peptide concentration was fixed at 10 nM. Peptide/protein samples were incubated for 20 minutes at room temperature in the dark and fluorescence polarization (FP) was measured in an Analyst GT multimode reader (Molecular Devices, Sunnyvale, CA) with excitation and emission wavelengths of 530 nm and 555 nm, respectively. Experimental values were output as millipolarization (mP) units and imported into MATLAB (The MathWorks, Inc., Natick, MA) in which equation (1) was used to determine dissociation constants (KDs) for each protein/peptide pairing by least squares nonlinear regression. [drawing 1] (1)
(§2) FP was described by the following equation: P=Iparallel-IperpendicularIparallel+Iperpendicular, where “P” denotes polarization, and “I” denotes the fluorescent intensity relative to the plane of incident light. Experimental values were output as millipolarization (mP) units and imported into MATLAB where the following equation was used to determine dissociation constants (KDs) for each protein/peptide pairing by least squares nonlinear regression:
(§3) Pobs=Pmax∙ProteinKD+Protein [picture] (1)
(§4) Peptides were initially tested for systematic plate effects across protein dilutions and nonspecific binding to thioredoxin by linear regression analysis and any effects were regressed out. The median baseline control polarization value for each plate was then subtracted from each data point to make each binding curve intersect at zero. Plates with excessive variation in baseline control polarizations on both a global and run-specific manner (Dixon’s Q test, p < 0.05) were excluded from further analysis. Outliers in each binding curve were identified and removed using an iterative procedure as follows. The residuals for each fit were used to calculate a global standard deviation of the residuals (GSDR) for each concentration of SH2 domain over all interactions, and individual data points with residuals < or > two GSDR from the global mean residual were flagged as outliers. The outlier with the largest residual from each interaction was removed and nonlinear regression was again performed. This procedure was repeated if additional outliers were identified for an interaction, discarding the interaction if the number of outliers exceeded three. […] In order to further control our false positive rate against hidden confounding variables producing binding artifacts, we sought to determine whether there was a significant relationship between the strength of an interaction and its technical replication rate at our stringent significance and filtering thresholds. We performed logistic regression on the proportion of successful replicates for each interaction query against KD for all interactions (Figure S15A). […] This is related to the observation that the majority of interactions detected by FP are tight (Figure S15B). With this logit model, we assigned a probability to each peptide-protein interaction in our data by using a binomial proportions test to compare the observed versus the expected replication rate at the particular KD of that interaction (Table S4). […]

[1] = target: T2, PLCG1-NC tandem SH2 domains (Homo sapiens, UniProt P19174); assay: FP saturation binding assay; conditions: Protein PLCG1-NC; FP saturation binding, high-confidence ErbB interactions; mean over replicate hits
T2 construct: the tandem protein was included in our analysis with all internal amino acids linking the domains; 6X His; thioredoxin; made in house; host or cells: E. coli BL21(DE3)pLysS
T2 sequence (P19174 550-756 limits assumed): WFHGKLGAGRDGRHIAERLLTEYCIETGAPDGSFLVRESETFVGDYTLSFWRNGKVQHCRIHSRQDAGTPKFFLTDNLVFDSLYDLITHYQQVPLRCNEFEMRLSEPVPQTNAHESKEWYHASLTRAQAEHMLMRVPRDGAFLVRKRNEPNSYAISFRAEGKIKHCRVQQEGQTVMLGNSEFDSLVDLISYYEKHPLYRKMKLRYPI
Description: as §1, with “Peptide/protein samples were incubated for 20 minutes at room temperature in the dark and fluorescence polarization (FP) was measured in an Analyst GT multimode reader (Molecular Devices, Sunnyvale, CA) with excitation and emission wavelengths of 530 nm and 555 nm, respectively.” left out
as §2, §3
Peptides were initially tested for systematic plate effects across protein dilutions and nonspecific binding to thioredoxin by linear regression analysis and any effects were regressed out. The median baseline control polarization value for each plate was then subtracted from each data point to make each binding curve intersect at zero. Plates with excessive variation in baseline control polarizations on both a global and run-specific manner (Dixon’s Q test, p < 0.05) were excluded from further analysis. Outliers in each binding curve were identified and removed using an iterative procedure as follows. The residuals for each fit were used to calculate a global standard deviation of the residuals (GSDR) for each concentration of SH2 domain over all interactions, and individual data points with residuals < or > two GSDR from the global mean residual were flagged as outliers. The outlier with the largest residual from each interaction was removed and nonlinear regression was again performed. This procedure was repeated if additional outliers were identified for an interaction, discarding the interaction if the number of outliers exceeded three. […] In order to further control our false positive rate against hidden confounding variables producing binding artifacts, we sought to determine whether there was a significant relationship between the strength of an interaction and its technical replication rate at our stringent significance and filtering thresholds. We performed logistic regression on the proportion of successful replicates for each interaction query against KD for all interactions (Figure S15A). […] “High-confidence” FP interactions are defined as those having 1 - P(Observed Replication Rate | Expectation) > 0.5 and that have replicated at least twice across independent FP runs. […] The compiled FP data were organized into heatmaps generated by MATLAB and relative binding strength (µM). Peptides without at least one positive hit were classified as “no interaction” if there was no homologous sequence (i.e. identical at the +1 to +4 positions relative to the phosphotyrosine) that produced a positive interaction within the ErbB receptor family.

[2] = target: PIK3R2-NC tandem SH2 domains (Homo sapiens, UniProt O00459); assay: FP saturation binding assay
PIK3R2-NC tandem SH2 domains, sequence (O00459 330-716 limits assumed): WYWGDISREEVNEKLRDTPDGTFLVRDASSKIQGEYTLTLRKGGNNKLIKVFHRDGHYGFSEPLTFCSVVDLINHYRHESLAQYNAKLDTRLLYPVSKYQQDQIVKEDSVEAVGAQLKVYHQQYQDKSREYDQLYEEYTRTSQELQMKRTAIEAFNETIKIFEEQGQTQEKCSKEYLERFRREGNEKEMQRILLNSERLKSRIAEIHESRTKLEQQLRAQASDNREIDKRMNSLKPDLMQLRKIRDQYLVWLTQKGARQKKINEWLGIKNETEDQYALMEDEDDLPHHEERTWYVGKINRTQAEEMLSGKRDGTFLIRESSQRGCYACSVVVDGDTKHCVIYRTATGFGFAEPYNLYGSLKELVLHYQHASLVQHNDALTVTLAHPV

PIK3R1-N SH2 domain = target: T3, PIK3R1-N SH2 domain (Homo sapiens, UniProt P27986); assay: biochemical; type: binding; conditions: Protein PIK3R1-N; FP saturation binding, high-confidence ErbB interactions; mean over replicate hits
T3 construct: thioredoxin; made in house; host or cells: E. coli BL21(DE3)pLysS
T3 sequence (P27986 333-428 limits assumed): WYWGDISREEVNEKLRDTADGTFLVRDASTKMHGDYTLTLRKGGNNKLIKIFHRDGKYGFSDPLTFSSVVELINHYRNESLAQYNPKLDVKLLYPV

[3] = target: T4, PIK3R3-NC tandem SH2 domains (Homo sapiens, UniProt Q92569); assay: FP saturation binding assay; conditions: protein PIK3R3-NC; FP, high-confidence ErbB interactions; mean of replicate hits
T4 construct: the tandem protein was included in our analysis with all internal amino acids linking the domains; 6X His; thioredoxin; made in house; host or cells: E. coli BL21(DE3)pLysS
Description: as §1, §2, §3, §4

[4] = test system: 93 human SH2 domains and 2 phosphotyrosine binding (PTB) domains; assay: FP saturation binding assay, whole domain panel (protein named per line or not at all); conditions: for interaction with the SH2/PTB domain panel: KD <= 20 µM counted as interaction; for SH2 domains found to interact: high-confidence interactions (Table S11, Figure S14)
Description: as §1
To scale up the number of interaction measurements while minimizing variation introduced by human intervention, we utilized an automated robotic platform (Figure 1A; see experimental procedures and Supplementary Methods) to transfer, incubate, and measure the fluorescence polarization (FP) induced from interactions of a titration series of SH2 domains with synthetic rhodamine-labeled ErbB phosphopeptides. Experimental values were output as millipolarization (mP) units and equation (1) was used to fit apparent midpoint dissociation constants (KDs) for each protein/peptide pair using non-linear regression (see experimental procedures).
For this interaction analysis, we synthesized and queried the interaction of phosphopeptides corresponding to 89 of 92 ErbB family intracellular tyrosines with 93 SH2 domains. Because nine peptide sequences share 100% identity between the receptors in the 4 to 7 amino acids C-terminal to the phosphorylated tyrosine, our peptide set consisted of 81 phosphopeptides corresponding to the 89 unique tyrosine containing sequences (Table S2). This peptide set represents a 50% increase over the three PM studies performed to date. We were therefore able to obtain a more systematic and unbiased view of the relative SH2 domain recruitment potential of each receptor. Although most ErbB receptor auto-phosphorylation sites have been detected frequently by mass spectrometry because of their high relative modification stoichiometry, non-auto-phosphorylation sites have been reported less frequently in the literature (Table S3). We reasoned that many physiologically relevant and uncharacterized ErbB tyrosines of low phosphorylation stoichiometry may exist and that our comprehensive interaction analysis might implicate their importance in mediating physiological interactions. We tested the majority of interactions (7099/8160 (87.0%); Figure S3) three or more times and reported standard error for all interactions that were detected in at least three FP runs (Table S4). […] Analysis of this polarization data may be useful for inferring how SH2 proteins bind to different peptide sequences. Larger proteins and proteins binding closer to the N-terminal rhodamine tag of a given peptide would be expected to induce higher maximal polarization (the calculated maximal polarization value at infinite protein concentration) than proteins binding farther from the tag. In addition to phosphopeptides, we queried a representative set of 27 non-phosphopeptides against the entire domain set. […]

Compound	Kd [3]	interaction with the SH2/PTB domain panel [4]	SH2 domains found to interact [4]	further results
CC(C)C[C@H](NC(=O)CNC(=O)[C@H](CC(C)C)NC(=O)[C@H](Cc1ccc(OP(=O)(O)O)cc1)NC(=O)[C@H](CCC(=O)O)NC(=O)[C@@H]1CCCN1C(=O)[C@H](CC(N)=O)NC(=O)[C@@H](N)CCC(=O)O)C(=O)N[C@@H](CC(=O)O)C(=O)N[C@H](C(=O)N1CCC[C@H]1C(=O)N[C@H](C(=O)N[C@@H](CC(=O)O)C(=O)O)C(C)C)C(C)C [ErbB2 1248 13-mer] (HELM PEPTIDE1{E.N.P.E.[O=C([C@H](Cc1ccc(OP(=O)(O)O)cc1)N[*:1])[*:2]].L.G.L.D.V.P.V.D}$$$$V2.0)				Kd (PIK3R3-N SH2 domain; Protein PIK3R3-N, FP saturation binding, mean over replicate hits): 11200 nM; Kd [1]: 9970 nM; Kd [2]: 9900 nM
CSCC[C@H](NC(=O)[C@@H]1CCCN1C(=O)[C@H](CCSC)NC(=O)[C@H](Cc1ccc(OP(=O)(O)O)cc1)NC(=O)CNC(=O)[C@H](CO)NC(=O)[C@H](CO)NC(=O)[C@@H]1CCCN1)C(=O)N[C@@H](CC(N)=O)C(=O)N[C@@H](CCC(N)=O)C(=O)NCC(=O)N[C@@H](CC(N)=O)C(=O)N[C@@H](CC(=O)O)C(=O)O [ErbB3 1054 13-mer] (HELM PEPTIDE1{P.S.S.G.[O=C([C@H](Cc1ccc(OP(=O)(O)O)cc1)N[*:1])[*:2]].M.P.M.N.Q.G.N.D}$$$$V2.0)	260 nM			Kd (PIK3R1-N SH2 domain): 1800 nM
CSCC[C@H](NC(=O)[C@H](Cc1ccc(O)cc1)NC(=O)[C@H](CCC(=O)O)NC(=O)[C@H](Cc1ccc(OP(=O)(O)O)cc1)NC(=O)[C@H](CCC(=O)O)NC(=O)[C@H](CCC(=O)O)NC(=O)[C@H](CC(=O)O)NC(=O)[C@@H](N)CCC(=O)O)C(=O)N[C@@H](CC(N)=O)C(=O)N[C@@H](CCCNC(=N)N)C(=O)N[C@@H](CCCNC(=N)N)C(=O)N[C@@H](CCCNC(=N)N)C(=O)N[C@@H](CC(=O)O)C(=O)O [ErbB3 1197 13-mer] (HELM PEPTIDE1{E.D.E.E.[O=C([C@H](Cc1ccc(OP(=O)(O)O)cc1)N[*:1])[*:2]].E.Y.M.N.R.R.R.D}$$$$V2.0)	200 nM			Kd (PIK3R3-N SH2 domain; protein PIK3R3-N, FP, mean of replicate hits): 1320 nM
DAEEpYLVPQAFN [ErbB4 pY1022, N-terminally rhodamine-labeled 13-mer phosphopeptide]		did not produce any interaction hits		
DVWSpYGVTIWELd [ErbB4 pY906, N-terminally rhodamine-labeled 13-mer phosphopeptide]		reproducibly interacted at high affinity with many SH2 domains	interacted with ZAP70, GRB7, and GRB10 SH2 domains	
KIRKpYTMRRLLQd [ErbB2 pY685, N-terminally rhodamine-labeled 13-mer phosphopeptide]		reproducibly interacted at high affinity with many SH2 domains	interacted with SOCS family SH2 domains	
